In article PMC7931078 (Molecules, 2021):
≈ marks a conversion by molar mass, not a printed value. Entries after “also recorded” stand apart in the source; their conditions may differ. Where two headings read alike, the source gives them in different places.

Legend:
[1] = test system: 3D7 strain of Plasmodium falciparum; assay: In vitro antiplasmodial assay (pLDH); type: cell-based
[2] = test system: Mycobacterium tuberculosis pMSp12::GFP; assay: microbe, parasite or virus in culture; type: cell-based
HEK293 cells = assay: In vitro cytotoxicity assay; type: cell-based; conditions: Homo sapiens, HEK293, read-out: IC50 HEK293
[3] = test system: Trypanosoma brucei brucei 427 trypomastigotes; assay: In vitro anti-trypanosomal assay; type: cell-based; conditions: 24 h, 427 strain, read-out: IC50 T. b. brucei
Procedure: Trypanosoma brucei brucei 427 trypomastigotes were cultured in iscove’s modified Dulbecco’s medium (IMDM; Lonza, Basel, Switzerland) supplemented with 10% fetal calf serum, HMI-9 supplement, hypoxanthine and penicillin/streptomycin at 37 °C in a 5% CO2 incubator. Serial dilutions of test compounds were incubated with the parasites in 96-well plates for 24 h and residual parasite viability in the wells determined as previously reported.

[4] = test system: ESKAPE (E. faecium, A. baumanni, K. pneumoniae, P. aeruginosa, S. aureus) pathogens; assay: Antibacterial broth microdilution, ESKAPE pathogens; type: cell-based; conditions: colistin and vancomycin as standards
S. aureus (MRSA) = assay: microbe, parasite or virus in culture; type: cell-based; conditions: Staphylococcus aureus, read-out: MIC against S. aureus (MRSA)
A. baumanni = assay: Antibacterial broth microdilution, A. baumanni; type: cell-based; conditions: read-out: MIC against A. baumanni
[5] = Plasmodium falciparum, 3D7, 48 h, read-out: IC50 Pf 3D7, chloroquine sensitive strain 3D7, 48 h, pLDH
[6] = Mycobacterium tuberculosis, H37RV, 336 h
[7] = read-out: IC50 Pf 3D7, chloroquine sensitive strain 3D7, 48 h, pLDH

Compound	IC50 [1, 5]	MIC90 [2]	MIC90 [2, 6]	IC50 (HEK293 cells)	IC50 ([3]; Trypanosoma brucei)	IC50 [1, 7]	activity against ESKAPE pathogens (in words) [4]	MIC (S. aureus (MRSA))	MIC (A. baumanni)	IC50 [3]	IC50 Pf 3D7 ([1]; chloroquine sensitive strain 3D7, 48 h, pLDH)	melting point
CCOC(=O)c1cn(CC)c2ccc(Cn3cnc4c3c(=O)n(C)c(=O)n4C)cc2c1=O [Compound 3a, Ethyl 6-((1,3-dimethyl-2,6-dioxo-1,2,3,6-tetrahydro-7H-purin-7-yl)methyl)-1-ethyl-4-oxo-1,4-dihydroquinolone-3-carboxylate]	> 20 µM	>125 µM	> 125 µM	> 32 µg/mL	> 20 µM							
CCOC(=O)c1cn(Cc2ccccc2)c2ccc(Cn3cnc4c3c(=O)n(C)c(=O)n4C)cc2c1=O [Compound 3c, Ethyl 1-benzyl-6-((1,3-dimethyl-2,6-dioxo-1,2,3,6-tetrahydro-7H-purin-7-yl)methyl)-4-oxo-1,4-dihydroquinolone-3-carboxylate]	> 20 µM		> 125 µM	> 32 µg/mL	14.5 µM							
CCOC(=O)c1cn(Cc2ccc(Br)cc2)c2ccc(Cn3cnc4c3c(=O)n(C)c(=O)n4C)cc2c1=O [Compound 3d, Ethyl 1-(4-bromobenzyl)-6-((1,3-dimethyl-2,6-dioxo-1,2,3,6-tetrahydro-7H-purin-7-yl)methyl)-4-oxo-1,4-dihydroquinolone-3-carboxylate]	13.6 µM		15.6 µM (≈ 9.02 µg/mL)	> 32 µg/mL	21.6 µM							
CCn1cc(C(=O)NCCNCCO)c(=O)c2cc(Cn3cnc4c3c(=O)n(C)c(=O)n4C)ccc21 [Compound 4a, 6-((1,3-Dimethyl-2,6-dioxo-1,2,3,6-tetrahydro-7H-purin-7-yl)methyl)-1-ethyl-N-(2-((2-hydroxyethyl)amino)ethyl)-4-oxo-1,4-dihydroquinolone-3-carboxamide]	> 20 µM	>125 µM	> 125 µM	> 32 µg/mL	> 20 µM							
CCn1cc(C(=O)NCCOCCO)c(=O)c2cc(Cn3cnc4c3c(=O)n(C)c(=O)n4C)ccc21 [Compound 4b, 6-((1,3-Dimethyl-2,6-dioxo-1,2,3,6-tetrahydro-7H-purin-7-yl)methyl)-1-ethyl-N-(2-(2-hydroxyethoxy)ethyl)-4-oxo-1,4-dihydroquinolone-3-carboxamide]	> 20 µM		> 125 µM	> 32 µg/mL	> 20 µM							
Cn1c(=O)c2c(ncn2Cc2ccc3c(c2)c(=O)c(C(=O)NCCNCCO)cn3Cc2ccccc2)n(C)c1=O [Compound 4d, 1-Benzyl-6-((1,3-dimethyl-2,6-dioxo-1,2,3,6-tetrahydro-7H-purin-7-yl)methyl)-N-(2-((2-hydroxyethyl)amino)ethyl)-4-oxo-1,4-dihydroquinolone-3-carboxamide]	≥ 25 µM		7.9 µM (≈ 4.41 µg/mL)	> 32 µg/mL	> 20 µM	> 20 µM						
Cn1c(=O)c2c(ncn2Cc2ccc3c(c2)c(=O)c(C(=O)NCCOCCO)cn3Cc2ccccc2)n(C)c1=O [Compound 4e, 1-Benzyl-6-((1,3-dimethyl-2,6-dioxo-1,2,3,6-tetrahydro-7H-purin-7-yl)methyl)-N-(2-(2-hydroxyethoxy)ethyl)-4-oxo-1,4-dihydroquinolone-3-carboxamide]	≥ 25 µM		> 125 µM	> 32 µg/mL	26.8 µM	> 20 µM						
COCCNC(=O)c1cn(Cc2ccccc2)c2ccc(Cn3cnc4c3c(=O)n(C)c(=O)n4C)cc2c1=O [Compound 4f, 1-Benzyl-6-((1,3-dimethyl-2,6-dioxo-1,2,3,6-tetrahydro-7H-purin-7-yl)methyl)-N-(2-methoxyethyl)-4-oxo-1,4-dihydroquinolone-3-carboxamide]	> 20 µM		> 125 µM	> 32 µg/mL	> 20 µM							
Cn1c(=O)c2c(ncn2Cc2ccc3c(c2)c(=O)c(C(=O)NCCNCCO)cn3Cc2ccc(Br)cc2)n(C)c1=O [Compound 4g, 1-(4-Bromobenzyl)-6-((1,3-dimethyl-2,6-dioxo-1,2,3,6-tetrahydro-7H-purin-7-yl)methyl)-N-(2-((2-hydroxyethyl)amino)ethyl)-4-oxo-1,4-dihydroquinolone-3-carboxamide]			7.9 µM (≈ 5.03 µg/mL)	> 32 µg/mL	> 20 µM							
Cn1c(=O)c2c(ncn2Cc2ccc3c(c2)c(=O)c(C(=O)NCCOCCO)cn3Cc2ccc(Br)cc2)n(C)c1=O [Compound 4h, 1-(4-Bromobenzyl)-6-((1,3-dimethyl-2,6-dioxo-1,2,3,6-tetrahydro-7H-purin-7-yl)methyl)-N-(2-(2-hydroxyethoxy)ethyl)-4-oxo-1,4-dihydroquinolone-3-carboxamide]	0.68 µM	>125 µM	> 125 µM	> 32 µg/mL	> 20 µM							
CCOC(=O)c1cn(CC)c2ccc(OCc3ccc(C(F)(F)F)cc3)cc2c1=O [Compound 7a, Ethyl 1-ethyl-4-oxo-6-((4-(trifluoromethyl)benzyl)oxy)-1,4-dihydroquinolone-3-carboxylate]			> 125 µM	> 32 µg/mL	18.5 µM							
CCn1cc(C(=O)NCCOCCO)c(=O)c2cc(OCc3ccc(C(F)(F)F)cc3)ccc21 [Compound 8a, 1-Ethyl-N-(2-(2-hydroxyethoxy)ethyl)-4-oxo-6-((4-(trifluoromethyl)benzyl)oxy)-1,4-dihydroquinolone-3-carboxamide]	< 10 µM		7.8 µM (≈ 3.73 µg/mL)	> 32 µg/mL	14.1 µM	6.8 µM						
CCn1cc(C(=O)NCCNCCO)c(=O)c2cc(OCc3ccc(C(F)(F)F)cc3)c(Cl)cc21 [Compound 8c, 7-Chloro-1-ethyl-N-(2-((2-hydroxyethyl)amino)ethyl)-4-oxo-6-((4-(trifluoromethyl)benzyl)oxy)-1,4-dihydroquinolone-3-carboxamide]				> 32 µg/mL	< 2 µM		moderate to poor activity; also recorded: moderate to weak, narrow spectrum activity	16 µg/mL (≈ 31.3 µM)	32 µg/mL (≈ 62.5 µM)	1.5 µM		
CCn1cc(C(=O)NCCOCCO)c(=O)c2cc(OCc3ccc(C(F)(F)F)cc3)c(Cl)cc21 [Compound 8d, 7-Chloro-1-ethyl-N-(2-(2-hydroxyethoxy)ethyl)-4-oxo-6-((4-(trifluoromethyl)benzyl)oxy)-1,4-dihydroquinolone-3-carboxamide]	> 20 µM		> 125 µM	> 32 µg/mL	> 20 µM							
O=C(NCCNCCO)c1cn(Cc2ccccc2)c2cc(Cl)c(OCc3ccc(C(F)(F)F)cc3)cc2c1=O [Compound 8g, 1-Benzyl-7-chloro-N-(2-((2-hydroxyethyl)amino)ethyl)-4-oxo-6-((4-(trifluoromethyl)benzyl)oxy)-1,4-dihydroquinolone-3-carboxamide]	0.4 µM	0.9 µM (≈ 0.517 µg/mL)	0.9 to 2 µM (≈ 0.517 to 1.15 µg/mL)	> 32 µg/mL		0.46 µM	moderate to poor activity; also recorded: moderate to weak, narrow spectrum activity	32 µg/mL (≈ 55.7 µM)				
O=C(NCCOCCO)c1cn(Cc2ccccc2)c2cc(Cl)c(OCc3ccc(C(F)(F)F)cc3)cc2c1=O [Compound 8h, 1-Benzyl-7-chloro-N-(2-(2-hydroxyethoxy)ethyl)-4-oxo-6-((4-(trifluoromethyl)benzyl)oxy)-1,4-dihydroquinolone-3-carboxamide]	> 20 µM		16 µM (≈ 9.2 µg/mL)	> 32 µg/mL	> 20 µM							
CCOC(=O)c1cn(CC)c2ccc([N+](=O)[O-])cc2c1=O [Compound 11, Ethyl 1-ethyl-6-nitro-4-oxo-1,4-dihydroquinolone-3-carboxylate]	> 20 µM		31.3 µM (≈ 9.09 µg/mL)	> 32 µg/mL	> 20 µM							
CCOC(=O)c1cn(Cc2ccccc2)c2ccc(N)cc2c1=O [Compound 12, Ethyl 6-amino-1-benzyl-4-oxo-1,4-dihydroquinolone-3-carboxylate]	10 µM		> 125 µM	> 32 µg/mL	> 20 µM							
CCOC(=O)c1cn(Cc2ccccc2)c2ccc(/N=C/c3ccc([N+](=O)[O-])o3)cc2c1=O [Compound 13, Ethyl-1-benzyl-6-(((5-nitrofuran-2-yl)methylene)amino)-4-oxo-1,4-dihydroquinolone-3-carboxylate]	< 10 µM	8.0 µM (≈ 3.56 µg/mL)	8 µM (≈ 3.56 µg/mL)	> 32 µg/mL	5.2 µM	6.5 µM	moderate to poor activity; also recorded: moderate to weak, narrow spectrum activity		16 µg/mL (≈ 35.9 µM)			
Nc1ccc2c(c1)c(=O)c(C(=O)NCCOCCO)cn2Cc1ccccc1 [Compound 14, 6-Amino-1-benzyl-N-(2-(2-hydroxyethoxy)ethyl)-4-oxo-1,4-dihydroquinolone-3-carboxamide]	> 20 µM	>125 µM	> 125 µM	> 32 µg/mL	> 20 µM						complete loss of antiplasmodial activity	
CCn1cc(C(=O)OC)c(=O)c2cc(C(=O)/C=C/c3c(Cl)cccc3Cl)ccc21 [Compound 16, Methyl (E)-Methyl-6-(3-(2,6-dichlorophenyl)acryloyl)-1-ethyl-4-oxo-1,4-dihydroquinolone-3-carboxylate]	11.7 µM	0.9 µM (≈ 0.387 µg/mL)	0.9 to 2 µM (≈ 0.387 to 0.861 µg/mL)	> 32 µg/mL	< 2 µM					1.5 µM		247 to 249 °C
